Tests used:
[1] = biological target: Thymidine kinase 2, mitochondrial (Homo sapiens) (UniProt O00142); experiment: Inhibitory concentration on phosphorylation of [methyl-3H]-dTh by human Thymidine Kinase 2
[2] = biological target: Thymidine kinase (Herpes simplex virus 1); experiment: Inhibitory concentration on phosphorylation of [methyl-3H]-dTh by HSV-1 Thymidine Kinase

Sequence of Thymidine kinase 2, mitochondrial (Homo sapiens) (O00142 whole entry, looked up): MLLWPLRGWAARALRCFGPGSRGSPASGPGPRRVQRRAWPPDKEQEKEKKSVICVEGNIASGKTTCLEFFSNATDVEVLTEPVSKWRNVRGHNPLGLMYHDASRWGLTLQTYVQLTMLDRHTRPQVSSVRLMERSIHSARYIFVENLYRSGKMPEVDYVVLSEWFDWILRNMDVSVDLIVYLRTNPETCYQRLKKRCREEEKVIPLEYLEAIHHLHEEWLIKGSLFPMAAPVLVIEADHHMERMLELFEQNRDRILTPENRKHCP

Row | IC50 [1] | IC50 [2] | SMILES
1 | 57 µM | > 500 µM | Cc1cn(C/C=C\CNCc2ccccc2)c(=O)[nH]c1=O [1-(4-Benzylamino-but-2-enyl)-5-methyl-1H-pyrimidine-2,4-dione]
2 | 3.5 µM |  | Cc1cn(C/C=C\CN(Cc2ccccc2)Cc2ccccc2)c(=O)[nH]c1=O [1-(4-Dibenzylamino-but-2-enyl)-5-methyl-1H-pyrimidine-2,4-dione]
3 | 28 µM | 72 µM | Cc1cn(C/C=C\CNC(=O)c2cccc(C(F)(F)F)c2)c(=O)[nH]c1=O [N-[4-(5-Methyl-2,4-dioxo-3,4-dihydro-2H-pyrimidin-1-yl)-but-2-enyl]-3-trifluoromethyl-benzamide]

— BindingDB's records for doi:10.1016/s0960-894x(03)00639-5 (Instituto De Química Médica (Csic), 2003)
